This note sets out measurements from ChEMBL document CHEMBL1201862, “PubChem BioAssay data set” (2004).

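Where inhibition never reached the appropriate level, the endpoint shown equals the highest concentration tested. Otherwise, values were interpolated linearly from a five-concentration, 48-hour dose response in 96-well plates. GI50 = concentration required for 50% inhibition of growth.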 The source made the active and inactive calls. Cut-off read from the data, not from the text of the source: active = GI50 up to about 1.1 µM and inactive = higher.

Some test systems named below: SW-620; SF-539; DU-145; KM12; UO-31; U-251; SK-OV-3; CAKI-1; NCI-H522; MDA-N; HOP-62; HL-60; SK-MEL-2; CCRF-CEM; LOX IMVI; OVCAR-4; SF-295; HCT-15; BT-549.
Holding throughout (experiment): inhibition of tumour cell growth, NCI panel, 48 h

`COC(=O)C(CSSC[C@H](N/C(C)=C/C(C)=O)C(=O)OC)N/C(C)=C/C(C)=O` (stereo partly specified): the GI50 in the test with SW-620 was 34.1 µM (inactive); in the test with SF-539, 53 µM (inactive); in the test with DU-145, 25.7 µM (inactive); in the test on KM12, 28.8 µM (inactive); with UO-31 it was 47.5 µM (inactive); in the test on U-251, 33.3 µM (inactive). The GI50 with SK-OV-3 is > 100 µM (inactive); in the test with CAKI-1 it was 17.3 µM (inactive); in the test on NCI-H522, 13.9 µM (inactive); in the test with MDA-N, 52.8 µM (inactive); in the test on HOP-62, 57.9 µM (inactive); in the test with HL-60 it was 30.2 µM (inactive). Besides, the GI50 in the test with SK-MEL-2 is > 100 µM (inactive); in the test on CCRF-CEM, 26.4 µM (inactive); in the test on LOX IMVI, 14 µM (inactive); with OVCAR-4, > 100 µM (inactive); in the test with SF-295, 35.2 µM (inactive).
`CCOc1ccnc2c(OC)c(C)c3nc4ccccc4nc3c12`: the GI50 in the test on HCT-15 is 12.8 µM; in the test with SW-620, > 100 µM (inactive); in the test with SF-539, > 100 µM (inactive); in the test on DU-145, 41 µM (inactive); with KM12 it was 86.5 µM (inactive); in the test on UO-31, > 100 µM (inactive). The GI50 in the test with U-251, in the test on SK-OV-3, with CAKI-1, in the test with NCI-H522, in the test with MDA-N and with HOP-62 was > 100 µM (inactive) each time. Further, the GI50 with HL-60, in the test on SK-MEL-2, in the test on CCRF-CEM, in the test with LOX IMVI, in the test on OVCAR-4 and in the test with SF-295 was > 100 µM (inactive) throughout.
With `N#Cc1nc(C#N)c(NC(=O)c2ccccc2C(=O)O)[nH]1`, the GI50 in the test with SW-620, in the test on SF-539, in the test with DU-145, with KM12, in the test with UO-31 and with U-251 was > 100 µM (inactive) each time. The GI50 with SK-OV-3, in the test on CAKI-1, in the test on NCI-H522, in the test on MDA-N, in the test on HOP-62 and in the test with HL-60 was > 100 µM (inactive) each time. Besides, the GI50 in the test on SK-MEL-2, with CCRF-CEM, in the test on LOX IMVI and in the test with SF-295 was > 100 µM (inactive) in each case.
With `COc1ccc(Nc2nc3cc(C(F)(F)F)ccc3nc2-c2ccccc2)cc1OC`, the GI50 is 64.4 µM in the test on HCT-15; 35.5 µM (inactive) in the test with SW-620; 39.5 µM (inactive) in the test with SF-539; > 100 µM (inactive) with KM12; 11.8 µM (inactive) in the test with UO-31; 30.9 µM (inactive) in the test with U-251. In addition, the GI50 was 15.9 µM (inactive) in the test on SK-OV-3; 31.5 µM (inactive) with CAKI-1; 30 µM (inactive) in the test with NCI-H522; 2.74 µM (inactive) in the test on HOP-62; 48.9 µM (inactive) in the test with SK-MEL-2; 82.6 µM (inactive) in the test on CCRF-CEM. Also, the GI50 in the test on LOX IMVI is 19.8 µM (inactive); with OVCAR-4 it was 24 µM (inactive); with SF-295, 11.3 µM (inactive).
With `CCC1=CC(OCc2ccccc2)C(CCN(Cc2ccccc2)C(=O)OCc2ccccc2)C1` (stereo unspecified), the GI50 in the test with HCT-15 is 13.6 µM; in the test with SW-620, 18.4 µM (inactive); in the test with SF-539, 20.6 µM (inactive); in the test with DU-145, 16.4 µM (inactive); in the test on KM12, 15.6 µM (inactive); with UO-31, 14.6 µM (inactive). Besides, the GI50 in the test with U-251 was 19.8 µM (inactive); with SK-OV-3, 20 µM (inactive); in the test with CAKI-1 it was 14.7 µM (inactive); with NCI-H522 it was 11.7 µM (inactive); in the test on MDA-N, 30.4 µM (inactive); with HOP-62, 16.5 µM (inactive). Besides, the GI50 was 20.2 µM (inactive) with SK-MEL-2, 14.9 µM (inactive) with LOX IMVI, 13.7 µM (inactive) in the test on OVCAR-4 and 14.8 µM (inactive) in the test on SF-295.
As for `O=C(O)CCNCCCCNCCC(=O)O`, the GI50 with HCT-15 was more than 100 µM; in the test on SW-620 it was > 100 µM (inactive); in the test with SF-539, > 100 µM (inactive); with KM12 it was > 100 µM (inactive); with U-251, > 100 µM (inactive); with SK-OV-3, > 100 µM (inactive). The GI50 with CAKI-1, with NCI-H522, in the test with HOP-62, with HL-60, in the test with SK-MEL-2 and in the test on CCRF-CEM was > 100 µM (inactive) throughout. The GI50 in the test with LOX IMVI, in the test with OVCAR-4 and with SF-295 was > 100 µM (inactive) throughout.
For `COC12OC3(C4OC41)C(C(=O)O[C@H]3CO[Si](C)(C)C(C)(C)C)C2S(=O)(=O)c1ccccc1` (stereo partly specified), the GI50 with HCT-15 was 3.16 µM; in the test on SW-620, 1.52 µM (inactive); in the test on SF-539, > 100 µM (inactive); with DU-145 it was > 4.65 µM (inactive); in the test on UO-31 it was > 4.65 µM (inactive); in the test on U-251, > 4.65 µM (inactive). In addition, the GI50 in the test with BT-549 is > 49.9 µM (inactive); in the test with SK-OV-3 it was > 4.65 µM (inactive); in the test on CAKI-1, 2.71 µM (inactive); with NCI-H522, 17.1 µM (inactive); with HOP-62, > 4.65 µM (inactive); in the test with HL-60, < 0.01 µM (active). For the same molecule, the values for the GI50 in the test on SK-MEL-2, in the test with CCRF-CEM and with SF-295 were > 4.65 µM (inactive), 0.597 µM (active) and > 25.5 µM (inactive), respectively.
On to `COC1=CC(c2ccc(Br)[nH]2)=N/C1=C/NCC(C)C`, for which the GI50 in the test on HCT-15 is 1.3 µM; in the test on SF-539, 2.06 µM (inactive); with DU-145 it was 0.475 µM (active); with KM12, 1.26 µM (inactive); in the test with UO-31 it was 2.06 µM (inactive); with U-251, 1.51 µM (inactive). The GI50 with SK-OV-3 is 2.53 µM (inactive); with CAKI-1, 2.36 µM (inactive); with NCI-H522, 1.49 µM (inactive); with HOP-62 it was 1.47 µM (inactive); in the test with HL-60 it was 1.39 µM (inactive); with SK-MEL-2, 1.5 µM (inactive). Besides, the values for the GI50 with CCRF-CEM, with OVCAR-4 and in the test on SF-295 were 0.581 µM (active), 1.86 µM (inactive) and 1.6 µM (inactive), respectively.
Consider `COC(=O)c1ccc2c(c1)CC1(C2)Cc2cc3c(cc2C1)CCC3`, for which the GI50 is more than 100 µM in the test on HCT-15; > 100 µM (inactive) in the test on SW-620; > 100 µM (inactive) in the test on SF-539; > 100 µM (inactive) in the test on DU-145; > 100 µM (inactive) in the test on UO-31; 49.3 µM (inactive) in the test with U-251. Besides, the GI50 in the test with SK-OV-3, with CAKI-1, with NCI-H522, with MDA-N, with HOP-62 and in the test with HL-60 was > 100 µM (inactive) throughout. The GI50 with SK-MEL-2 is 98.2 µM (inactive); in the test on CCRF-CEM, > 100 µM (inactive); in the test with LOX IMVI, > 100 µM (inactive); with OVCAR-4, > 100 µM (inactive); with SF-295, > 100 µM (inactive).
Regarding `O=C(c1ccccc1)c1c(C(F)(F)F)[n+]([O-])c2ccccc2[n+]1[O-]`, the GI50 is 0.785 µM in the test with HCT-15; 1.48 µM (inactive) in the test on SW-620; 1.83 µM (inactive) in the test with SF-539; 1.73 µM (inactive) with DU-145; 0.451 µM (active) in the test on KM12; 0.879 µM (active) with UO-31. Besides, the GI50 in the test with U-251 was 1.16 µM (inactive); with BT-549, 0.476 µM (active); in the test with CAKI-1, 0.446 µM (active); in the test on NCI-H522, 0.459 µM (active); in the test with HOP-62, 1.08 µM (active); in the test with HL-60 it was 0.205 µM (active). Moreover, the GI50 in the test with SK-MEL-2 is 1.5 µM (inactive); in the test on CCRF-CEM, 0.495 µM (active); with LOX IMVI it was 0.291 µM (active); with OVCAR-4 it was 0.302 µM (active); in the test with SF-295 it was 1.36 µM (inactive).
Regarding `Cc1cc(C)cc(Nc2nnc3n2S(=O)(=O)c2cc(C)c(Cl)cc2S3)c1`, the GI50 with HCT-15 was 4.37 µM; with SW-620, 3.45 µM (inactive); in the test on SF-539, 2.89 µM (inactive); in the test on DU-145, 10.3 µM (inactive); with KM12, 8.38 µM (inactive); in the test with UO-31, 7.14 µM (inactive). In addition, the GI50 in the test with U-251 is 3.24 µM (inactive); in the test with BT-549 it was 4.22 µM (inactive); in the test on SK-OV-3 it was 14.3 µM (inactive); in the test on CAKI-1, 7.11 µM (inactive); in the test on NCI-H522 it was 3.56 µM (inactive); in the test on HOP-62 it was 7.31 µM (inactive). Further, the GI50 was 4.17 µM (inactive) with HL-60; 2.7 µM (inactive) in the test with SK-MEL-2; 0.313 µM (active) in the test with CCRF-CEM; 3.44 µM (inactive) in the test on LOX IMVI; 8.69 µM (inactive) in the test on OVCAR-4; 7.03 µM (inactive) in the test with SF-295.
On to `CCOC(=O)C1(C(=O)OCC)C[C@]23OCCC(=O)[C@H]2[C@H]2C(=O)OC(C)(C)O[C@]23C1`, for which the GI50 with HCT-15 was more than 100 µM; in the test on SW-620, > 100 µM (inactive); with SF-539, > 100 µM (inactive); in the test with DU-145 it was > 100 µM (inactive); with KM12, > 100 µM (inactive); in the test with UO-31, > 100 µM (inactive). Moreover, the GI50 in the test with U-251, in the test with CAKI-1, in the test on NCI-H522, in the test with MDA-N, in the test with HOP-62 and with HL-60 was > 100 µM (inactive) each time. In addition, the GI50 in the test on SK-MEL-2, in the test on CCRF-CEM, in the test on LOX IMVI, in the test with OVCAR-4 and in the test with SF-295 was > 100 µM (inactive) in each case.
